Test results reported in patent publication US20250255850A1, “PHARMACEUTICAL COMPOSITIONS FOR TREATING NEUROLOGICAL CONDITIONS” (YISSUM RESEARCH DEVELOPMENT COMPANY OF THE HEBREW …, priority 2021, published 2025).

Tests used:
[1] = test system: Mutant mice (CNTNAP2 and SHANK3 mouse models); assay: Novel object recognition test (NOR), 7-NI-treated mutant mice (Example 3); type: in vivo; details: 7-NI IP 80 mg/kg/day for 7 days; mutant mice vs vehicle
Experimental: (§1) Behavioral testing started after 2 hours of treatment.
(§2) Novel object recognition (see, FIG. 4A): The novel object test for object recognition and memory takes place in a white open field arena (45×45 cm). The test involves a set of two unique novel objects, each about the size of a mouse, constructed from two different materials and non-uniform in shape. The test consisted of one 10-minute habituation session, a 5-minute familiarization session and a 5-minute recognition test, each video tracked (Noldus Ethovision). During the habituation, animals were allowed to freely explore an empty open field. At the end of the session, they were shifted from the open field to a place in a temporary clean holding cage for about 2 minutes. Two identical objects were placed on the median line at 10 cm from each wall and the animal was returned to the open field and allowed to explore the objects for 5 minutes before being returned to its home cage. Next day, one familiar object and one novel object were placed in the open field to the location where the identical objects were placed during the familiarization session and the mouse was allowed to explore them for a 5-minute recognition test. […] Familiarization and recognition sessions were scored for total time spent investigating each object, the number of object interactions and the latency of the first object interaction. […]

3-nitrotyrosine = assay: Western blot of 3-nitrotyrosine in cortical tissue, CNTNAP2(-/-) mutant group (M2); type: in vivo, mouse; details: CNTNAP2(-/-) mutant mice treated with 7-NI (M2+7-NI) vs M2
Experimental: as §1
To further corroborate these findings, the expression of 3-nitrotyrosine in cortical tissue of the wild type (WT), compared with the SHANK3 mutant group (M1), and SHANK3 group treated with 7-NI (M1+7-NI), and in cortical tissue of the wild type (WT), compared with the CNTNAP2^(−/−) mutant group (M2), and the CNTNAP2^(−/−) mutant group treated with 7-NI (M2+7—NI) was tested, and the obtained data is presented in FIGS. 3C-D (for M1) and in FIGS. 3E-F (for M2).

SHANK3 knockout mice = assay: Novel object recognition test, SHANK3 knockout mice (M1); type: in vivo, mouse; details: 7-NI IP 80 mg/kg/day for 10 days
Experimental: as §1, §2

CNTNAP2−/− mutant mice = assay: Elevated plus maze test, CNTNAP2-/- mutant mice (M2); type: in vivo, mouse; details: 7-NI i.p. 80 mg/kg daily for 10 days, vs untreated mutant mice
Experimental: as §1
Elevated plus maze test (see, FIG. 4C): The elevated plus-maze consisted of four arms (30×5 cm), two open, and the other two closed. The platform was made of white plexiglass. The apparatus was elevated 45 cm above the floor. The test, described in, was initiated by placing the mouse on the central platform of the maze, facing one of the open arms, and letting it move freely. Each session lasted 5 min. The time spent in the close and open arms was recorded.
In another set of tests, the potential effects of inhibiting NO on the cognitive functions was assayed on an additional mouse model of ASD-CNTNAP2−/− mutant mice. The mice were divided into three testing groups: WT mice, CNTNAP2−/− mutant mice (M2), and mutant mice that were administered with 7-NI (M2+7NI).

SHANK3 mutant mice = assay: Open field test, SHANK3 mutant mice; type: in vivo, mouse; details: 7-NI i.p. 20, 50 and 80 mg/kg
Experimental: Open field test: Mice were tested in an open field (45×45 cm) virtually divided into central and peripheral regions. Animal activity was recorded by video tracking (Noldus Ethovision). Each mouse was allowed to explore the apparatus for 5 minutes. The distance traveled, the number of rears and revolutions, the number of grooming bouts and cumulative grooming time, the number of head shaking or twitches, the number of entries in the center, and the time spent in the central and peripheral regions were recorded. Measures were recorded in 5-minute intervals.
A dose dependent study was conducted to determine the optimal dose that may produce the greatest effect on mice behavior. The SHANK3 mutant mice (n=5 for each group) were treated with the 7-NI (i.p) at doses of 0, 20, 50, and 80 mg/kg. This was followed by a set of behavioral tests to assess the proper dose of 7-NI that can reverse the autistic phenotypes observed in this model.
Initially, an open field test was performed to examine the general motor activity levels in mice that is measured by the distance travelled and velocity.
A 100 μL injection of the poly(sebacic acid-ricinoleic acid) (PSARA) gel formulation with 7NI was used to evaluate its effect in reversing ASD-like behaviors in SHANK3 mice. The motor activity, social interaction, anxiety and interest behaviors were examined using the behavior analyses as described herein.

SH-SY5Y cells = assay: Clonogenic survival assay; type: cell-based, human; details: 7-NI 100 μM for 24 hours or siRNA-nNOS, 14 days
Experimental: Cells were seeded into 6-well plates at concentrations of 500/well or 1000/well in triplicates. After 24 hours, 7-NI was added (100 μM for 24 hours), or cells were transiently transfected with siRNA-nNOS, as described above, before changing to serum-containing medium. Cells were incubated for 14 days to form visible colonies. Colonies were stained with crystal violet, washed with PBS, air-dried, and imaged. The colonies were visualized using ImageJ software. Cell colonies of greater than 50 cells were identified and counted (Lopez-Rivera et al., 2014).

[2] = even in very high doses; Biopharm. Drug Dispos. 2000, 21, 221-228; cited from earlier work

O=[N+]([O-])c1cccc2cn[nH]c12 [7-NI, 7-nitroindazole]
preference for the novel object (NOR test) [1]: exhibited a significant preference for the novel object over the familiar object
expression of 3-Ntyr in cortical tissue (3-nitrotyrosine): reduced the expression of 3-Ntyr
preference for the novel object (NOR test) (SHANK3 knockout mice; SHANK3 knockout mice aged 6 weeks): exhibited a significant preference for the novel object over the familiar one
memory (novel object recognition) in aged mice (SHANK3 knockout mice; SHANK3 knockout mice aged 10 months): restored
anxiety like behaviors (elevated plus maze) (CNTNAP2−/− mutant mice): exhibited less anxiety like behaviors
motor activity (distance travelled and velocity, open field) (SHANK3 mutant mice): no significant difference in the motor activity
number of colonies (clonogenic survival) (SH-SY5Y cells): decrease in the number of colonies
half-life [2]: ≤ 2 h
